# Data reported in paper PMC7023430, “4-Aminobenzoic Acid Derivatives: Converting Folate Precursor to Antimicrobial and Cytotoxic Agents” (Biomolecules, 2019).
# Read-outs that look alike come from different tables or passages of the source.
# Legend:
# [1] = tested on: Staphylococcus aureus ATCC 29213, CCM 4223; experiment: Antibacterial microdilution broth method, S. aureus; type: cell-based
# [2] = tested on: methicillin-resistant Staphylococcus aureus ATCC 43300, CCM 4750 (MRSA); experiment: Antibacterial microdilution broth method, MRSA; type: cell-based; details: Staphylococcus aureus
# [3] = tested on: Enterococcus faecalis ATCC 29212, CCM 4224; experiment: Antibacterial microdilution broth method, E. faecalis; type: cell-based; details: Enterococcus faecalis
# [4] = tested on: Escherichia coli ATCC 25922, CCM 3954; experiment: Antibacterial microdilution broth method, E. coli; type: cell-based; details: Escherichia coli
# [5] = tested on: Pseudomonas aeruginosa ATCC 27853, CCM 3955; experiment: Antibacterial microdilution broth method, P. aeruginosa; type: cell-based; details: Pseudomonas aeruginosa, P. aeruginosa
# [6] = tested on: Mycobacterium avium 330/88; experiment: Antimycobacterial micromethod in Šula's medium, M. avium; type: cell-based
# [7] = tested on: Mycobacterium kansasii 235/80; experiment: Antimycobacterial micromethod in Šula's medium, M. kansasii 235/80; type: cell-based
# [8] = tested on: M. kansasii 6509/96 (clinical isolate); experiment: Antimycobacterial micromethod in Šula's medium, M. kansasii 6509/96; type: cell-based; details: Mycobacterium kansasii
# Candida tropicalis 156 = experiment: Antifungal microdilution broth method, C. tropicalis; type: cell-based
# Method in brief: (§1)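 MIC by visual endpoint reading after twofold serial dilution of DMSO-dissolved compounds in RPMI-1640 (L-glutamine, 2% glucose, pH 7.0 with MOPS). Method follows EUCAST instructions, slightly modified; duplicates required agreement within one dilution step.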
# Candida krusei E28 = experiment: Antifungal microdilution broth method, C. krusei; type: cell-based; details: Pichia kudriavzevii
# Method in brief: as §1
# Candida glabrata 20/I = experiment: Antifungal microdilution broth method, C. glabrata; type: cell-based; details: Nakaseomyces glabratus
# Method in brief: as §1
# Trichosporon asahii 1188 = experiment: Antifungal microdilution broth method, T. asahii; type: cell-based
# Method in brief: as §1
# [9] = tested on: Aspergillus fumigatus 231; experiment: Antifungal microdilution broth method, A. fumigatus; type: cell-based
# Method in brief: as §1
# [10] = tested on: Lichtheimia corymbifera 272; experiment: Antifungal microdilution broth method, L. corymbifera; type: cell-based
# Method in brief: as §1
# HepG2 cells = experiment: Cytotoxicity, CellTiter 96 assay; type: cell-based, human; details: 24 h incubation
# Description: HepG2, human hepatocellular carcinoma cells (ATCC HB-8065; passage 5–8) purchased from Health Protection Agency Culture Collections (ECACC, Salisbury, UK) were cultured in Minimum Essentials Eagle Medium supplemented with 10% fetal bovine serum, 1% L-glutamine solution and non-essential amino acid solution (Sigma-Aldrich, St. Louis, MO, USA) in a humidified atmosphere containing 5% CO2 at 37 °C. For subculturing, the cells were harvested after trypsin/EDTA (Sigma-Aldrich, St. Louis, USA) treatment at 37 °C. To evaluate cytotoxicity, the cells treated with the tested substances were used as experimental groups whereas untreated HepG2 cells served as control groups.
# The cells were seeded in a density of 10 000 cells per well in a 96-well plate. The following day the cells were treated with each of the tested substances dissolved in DMSO (maximal incubation concentration of DMSO was 1% v/v). The tested substances were prepared at different incubation concentrations in triplicates according to their solubility. Simultaneously, the controls representing 100% cell viability, 0% cell viability (the cells treated with 10% DMSO), no cell control and vehiculum controls were also involved in triplicates. After 24 h incubation in a humidified atmosphere containing 5% CO2 at 37 °C, the reagent from the kit CellTiter 96 AQueous One Solution Cell Proliferation Assay (CellTiter 96; Promega, Fitchburg, WI, USA) was added. After 2 h incubation at 37 °C absorbance of samples was recorded at 490 nm (TECAN, Infinita M200, Grödig, Austria). A standard toxicological parameter IC50 was calculated by nonlinear regression from a semilogarithmic plot of incubation concentration versus percentage of absorbance relative to untreated controls using GraphPad Prism software (version 6; GraphPad Software, Inc., La Jolla, CA, USA).
# The CellTiter 96 assay used is based on the reduction of tetrazolium dye in living cells to formazan, which is then determined colorimetrically. This reduction is related to availability of NADH or NADPH. The decline in levels of these metabolically important compounds in the cell causes that the production of formazan is reduced. For quantitative comparison of cytotoxicity, the parameter IC50 was used.
# [11] = tested on: ESBL-positive Klebsiella pneumoniae J 14368/08
# [12] = 24 h incubation, read-out: MIC SA 24 h
# [13] = 48 h incubation, read-out: MIC SA 48 h
# [14] = 24 h incubation, read-out: MIC MRSA 24 h
# [15] = 48 h incubation, read-out: MIC MRSA 48 h
# [16] = 24 h incubation, read-out: MIC EF 24 h
# [17] = 48 h incubation, read-out: MIC EF 48 h
# [18] = 24 h incubation, read-out: MIC EC 24 h
# [19] = 48 h incubation, read-out: MIC EC 48 h
# [20] = 24 h incubation, read-out: MIC PA 24 h
# [21] = 48 h incubation, read-out: MIC PA 48 h
# [22] = 330/88, 336 h, 14 days incubation at 37 °C, read-out: MIC M. avium 330/88 14 d
# [23] = 330/88, 504 h, 21 days incubation at 37 °C, read-out: MIC M. avium 330/88 21 d
# [24] = 235/80, 168 h, 7 days incubation at 37 °C, read-out: MIC M. kansasii 235/80 7 d
# [25] = 235/80, 336 h, 14 days incubation at 37 °C, read-out: MIC M. kansasii 235/80 14 d
# [26] = 235/80, 504 h, 21 days incubation at 37 °C, read-out: MIC M. kansasii 235/80 21 d
# [27] = 168 h, 7 days incubation at 37 °C, read-out: MIC M. kansasii 6509/96 7 d
# [28] = 336 h, 14 days incubation at 37 °C, read-out: MIC M. kansasii 6509/96 14 d
# [29] = 504 h, 21 days incubation at 37 °C, read-out: MIC M. kansasii 6509/96 21 d
Compound,"MIC [1, 12]","MIC [1, 13]","MIC [2, 14]","MIC [2, 15]","MIC [3, 16]","MIC [3, 17]","MIC [4, 18]","MIC [4, 19]","MIC [5, 20]","MIC [5, 21]","MIC [6, 22]","MIC [6, 23]","MIC [7, 24]","MIC [7, 25]","MIC [7, 26]","MIC [8, 27]","MIC [8, 28]","MIC [8, 29]","MIC (Candida tropicalis 156; 24 h, read-out: MIC CT 24 h)","MIC (Candida tropicalis 156; 48 h, read-out: MIC CT 48 h)",other results
"Cc1ccc(O)c(C=Nc2ccc(C(=O)O)cc2)c1 [1g, 4-[(2-Hydroxy-5-methylbenzylidene)amino]benzoic acid]",> 500 µM,> 500 µM,> 500 µM,> 500 µM,> 500 µM,> 500 µM,> 500 µM,> 500 µM,> 500 µM,> 500 µM,> 1000 µM,> 1000 µM,500 µM,500 µM,500 µM,500 µM,500 µM,1000 µM,> 125 µM,> 125 µM,"MIC (Candida krusei E28; 24 h, read-out: MIC CK 24 h): > 125 µM; MIC (Candida krusei E28; 48 h, read-out: MIC CK 48 h): > 125 µM; MIC (Candida glabrata 20/I; 24 h, read-out: MIC CG 24 h): > 125 µM; MIC (Candida glabrata 20/I; 48 h, read-out: MIC CG 48 h): > 125 µM; MIC (Trichosporon asahii 1188; 24 h, read-out: MIC TA 24 h): > 125 µM; MIC (Trichosporon asahii 1188; 48 h, read-out: MIC TA 48 h): > 125 µM; MIC ([9]; 24 h, read-out: MIC AF 24 h): > 125 µM; MIC ([9]; 48 h, read-out: MIC AF 48 h): > 125 µM; MIC ([10]; 24 h, read-out: MIC LC 24 h): > 125 µM; MIC ([10]; 48 h, read-out: MIC LC 48 h): > 125 µM; IC50 (HepG2 cells): 956 µM; IC50 (HepG2 cells; Homo sapiens, HepG2, 24 h): > 500 µM; MIC KP-E 24 h [11]: >500 µM; MIC KP-E 48 h [11]: >500 µM"
"O=C(O)c1ccc(N=Cc2c(O)cccc2Cl)cc1 [1k, 4-[(2-Chloro-6-hydroxybenzylidene)amino]benzoic acid]",> 500 µM,> 500 µM,> 500 µM,> 500 µM,> 500 µM,> 500 µM,> 500 µM,> 500 µM,> 500 µM,> 500 µM,500 µM,1000 µM,250 µM,500 µM,500 µM,250 µM,250 µM,500 µM,62.5 µM,125 µM,"MIC (Candida krusei E28; 24 h, read-out: MIC CK 24 h): 125 µM; MIC (Candida krusei E28; 48 h, read-out: MIC CK 48 h): 250 µM; MIC (Candida glabrata 20/I; 24 h, read-out: MIC CG 24 h): 125 µM; MIC (Candida glabrata 20/I; 48 h, read-out: MIC CG 48 h): 125 µM; MIC (Trichosporon asahii 1188; 24 h, read-out: MIC TA 24 h): 125 µM; MIC (Trichosporon asahii 1188; 48 h, read-out: MIC TA 48 h): > 125 µM; MIC ([9]; 24 h, read-out: MIC AF 24 h): > 125 µM; MIC ([9]; 48 h, read-out: MIC AF 48 h): > 125 µM; MIC ([10]; 24 h, read-out: MIC LC 24 h): > 125 µM; MIC ([10]; 48 h, read-out: MIC LC 48 h): > 125 µM; IC50 (HepG2 cells; Homo sapiens, HepG2, 24 h): 280 µM; MIC KP-E 24 h [11]: >500 µM; MIC KP-E 48 h [11]: >500 µM"
"O=C(O)c1ccc(N=Cc2cc(Br)ccc2O)cc1 [1d, 4-[(5-Bromo-2-hydroxybenzylidene)amino]benzoic acid]",> 250 µM,> 250 µM,> 250 µM,> 250 µM,> 250 µM,> 250 µM,> 250 µM,> 250 µM,> 250 µM,> 250 µM,500 µM,500 µM,250 µM,250 µM,500 µM,500 µM,500 µM,500 µM,125 µM,125 µM,"MIC (Candida krusei E28; 24 h, read-out: MIC CK 24 h): 125 µM; MIC (Candida krusei E28; 48 h, read-out: MIC CK 48 h): 125 µM; MIC (Candida glabrata 20/I; 24 h, read-out: MIC CG 24 h): 62.5 µM; MIC (Candida glabrata 20/I; 48 h, read-out: MIC CG 48 h): 62.5 µM; MIC (Trichosporon asahii 1188; 24 h, read-out: MIC TA 24 h): 125 µM; MIC (Trichosporon asahii 1188; 48 h, read-out: MIC TA 48 h): 125 µM; MIC ([9]; 24 h, read-out: MIC AF 24 h): 250 µM; MIC ([9]; 48 h, read-out: MIC AF 48 h): 250 µM; MIC ([10]; 24 h, read-out: MIC LC 24 h): > 250 µM; MIC ([10]; 48 h, read-out: MIC LC 48 h): > 250 µM; IC50 (HepG2 cells; Homo sapiens, HepG2, 24 h): 179 µM; MIC KP-E 24 h [11]: >250 µM; MIC KP-E 48 h [11]: >250 µM"
"O=C(O)c1ccc(N=Cc2cc([N+](=O)[O-])ccc2O)cc1 [1f, 4-[(2-Hydroxy-5-nitrobenzylidene)amino]benzoic acid]",500 µM,500 µM,500 µM,500 µM,500 µM,500 µM,> 500 µM,> 500 µM,> 500 µM,> 500 µM,1000 µM,> 1000 µM,500 µM,500 µM,500 µM,500 µM,500 µM,500 µM,> 500 µM,> 500 µM,"MIC (Candida krusei E28; 24 h, read-out: MIC CK 24 h): > 500 µM; MIC (Candida krusei E28; 48 h, read-out: MIC CK 48 h): > 500 µM; MIC (Candida glabrata 20/I; 24 h, read-out: MIC CG 24 h): > 500 µM; MIC (Candida glabrata 20/I; 48 h, read-out: MIC CG 48 h): > 500 µM; MIC (Trichosporon asahii 1188; 24 h, read-out: MIC TA 24 h): 500 µM; MIC (Trichosporon asahii 1188; 48 h, read-out: MIC TA 48 h): 500 µM; MIC ([9]; 24 h, read-out: MIC AF 24 h): > 500 µM; MIC ([9]; 48 h, read-out: MIC AF 48 h): > 500 µM; MIC ([10]; 24 h, read-out: MIC LC 24 h): 500 µM; MIC ([10]; 48 h, read-out: MIC LC 48 h): 500 µM; IC50 (HepG2 cells; Homo sapiens, HepG2, 24 h): 244 µM; MIC KP-E 24 h [11]: >500 µM; MIC KP-E 48 h [11]: >500 µM"
